Key:
[1] = in vivo; cited from earlier work
male Sprague-Dawley rats = experiment: Mean arterial pressure, resting CBF and basal forebrain-elicited cortical CBF (laser-Doppler flowmetry); format: in vivo, rat
Method: General Surgery for CBF Measurement--Methods for surgical preparation of rats for electrical stimulation of brain and measurement of rCBF have been previously described (Nakai et al., Am. J. Physiol. 1982, 243:226) and are summarized below.
Studies are conducted on male Sprague-Dawley rats that are maintained in a thermally controlled (26°-27° C.) light-cycled (07.00 hour on-019.00 hour off) environment, fed standard rat chow and given water ad libitum. Anesthesia is induced with halothane (3.5%; balance 02) delivered through a nose mask and maintained at 2% during the initial surgery. Thin-wall vinyl catheters (o.d.=0.03 inch) are placed in each femoral artery and vein, and the trachea is cannulated.
Animals are subsequently co-anesthetized with urethane (1.5 g/kg, s.c.) and placed in a stereotaxic frame with the head positioned so that the floor of the IVth ventricle was horizontal (incisor bar position: -11 mm.). After connecting the tracheal cannula to a small-animal respirator, the animals are paralyzed with d-tubocurarine (0.6 mg/kg/h, i.m.), and ventilated (80 cpm) with 100% 02. Arterial pressure (AP) and heart rate (HR) are continuously monitored through one of the arterial catheters connected to a Statham P23Db transducer that is coupled to a chart recorder. The level of anesthesia during surgery or subsequent experimental testing is assessed by the AP response to tail pinch, with increasing levels of arousal giving rise to irregular AP readings. Booster doses of urethane (250 mg/kg, s.c.) are given as needed.
Bilateral craniotomies (approximately 4 mm×11 mm) are performed overlying the frontoparietal cortices taking care to leave the dura intact. Halothane is delivered at a reduced rate of 1% during cranial surgery and discontinued afterward. A small volume (about 0.2 ml) of arterial blood is sampled after completion of all surgery for measurement of PO2, PCO2 and pH by a blood gas analyzer. Arterial blood gases are maintained so that PO2 was greater than 100 mm Hg, PCO2 =33-38 mm Hg, and pH=7.35-7.45. Maintaining these values is accomplished by adjusting the stroke volume of the ventilator. Once appropriate physiological parameters are obtained (approximately 30 min), the experimental protocol is initiated.
Electrical Stimulation of the Basal Forebrain (BF)--The BF is stimulated with cathodal current delivered through a stainless steel concentric bipolar electrode ([…]) made by Rhodes Medical Instruments (Model SNEX-100). Electrical pulses are generated by a square wave stimulator (Grass, Model S-88) and constant current is passed through a photoelectric stimulus-isolation unit (Grass, Model PSIU6). The stimulus current is measured on an oscilloscope by continuously displaying the voltage drop across a 10-ohm resistor.
The procedure for eliciting an increased cortical CBF response requires the stereotaxic placement of the stimulating electrode into the BF. For positioning, the electrode is inclined posteriorly to 18 degrees, and the stereotaxic coordinates used were 5.0 mm posterior to, and 2.6 mm lateral to bregma (stereotaxic zero reference point). […] These parameters have been shown previously to elicit maximal increases in cortical CBF (Arneric, Excerpta Medica International Congress Series, Vol. 869:381, 1989). The region of the BF that selectively affects cortical CBF is restricted, with electrode movements of 0.5 mm dorsal or ventral to this site eliciting potent vasodepressor responses in addition to the increases in CBF. […] When CBF increases of approximately 100% or greater are repeatedly obtained in the absence of significant changes in AP (<10 mm Hg) or HR (<10 beats/min.), and when the perfusion rate is stable in the absence of BF stimulation, the experimental testing is started.
CBF Measurement with Laser--Dopler Flowmetry (LDF)--The principles and technical aspects of LDF are presented in detail elsewhere (Bonner et al., Appl. Opt. 1981, 20:2097; Stern et al., Am. J. Physiol. 1977, 232:H441). […]

M2 muscarinic receptor = M2 muscarinic receptor (Rattus norvegicus, UniProt P10980); format: binding; conditions: read-out: M2 Ki; Table 3
M2 muscarinic receptor, sequence (P10980 whole entry): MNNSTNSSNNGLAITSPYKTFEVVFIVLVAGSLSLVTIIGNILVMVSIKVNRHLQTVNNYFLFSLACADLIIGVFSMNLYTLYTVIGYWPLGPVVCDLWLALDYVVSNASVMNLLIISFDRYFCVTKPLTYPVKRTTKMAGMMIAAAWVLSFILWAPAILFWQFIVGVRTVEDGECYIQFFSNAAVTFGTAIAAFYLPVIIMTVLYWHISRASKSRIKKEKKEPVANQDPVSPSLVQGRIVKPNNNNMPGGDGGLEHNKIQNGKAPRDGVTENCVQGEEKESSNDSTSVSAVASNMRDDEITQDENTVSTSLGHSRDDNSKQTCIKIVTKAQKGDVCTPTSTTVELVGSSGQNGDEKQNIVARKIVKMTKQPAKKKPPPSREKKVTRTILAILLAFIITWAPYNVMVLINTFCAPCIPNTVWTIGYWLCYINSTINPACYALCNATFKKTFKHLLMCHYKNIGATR

[2] = target: neuronal nicotinic cholinergic receptor; experiment: [3H]-MCC binding to nicotinic receptors in whole rat brain membranes; conditions: for Ki: Table 3, [3H]-MCC, rat brain membranes, 4° C., read-out: Nic Ki (binding to the nicotinic receptor); for Nic % Enhancement @ Max. Effect: at 0.0001 (mM) as printed; for Nic Conc. @ Max. Effect: concentration giving maximal enhancement of [3H]-MCC binding; for Affinity for M1/M2 muscarinic and nicotinic neuronal binding sites: muscarinic (M1 or M2) and nicotinic; for Affinity for M1/M2 muscarinic and nicotinic neuronal binding sites / Binding of other nicotinic ligands to the neuronal nicotinic receptor: words
Method: Binding of [^3 H]methylcarbamylcholine ([^3 H]-MCC) to nicotinic receptors is accomplished using crude synaptic membranes prepared from whole rat brain (Snyder and Enna, Brain Res. 1975, 100:81). Washed membranes are stored at -80° C. prior to use. Frozen aliquots are slowly thawed and resuspended in 20 volumes of buffer (containing: 120 mM NaCl, 5 mM KCl, 2 mM MgCl2, 2 mM CaCl2, and 50 mM Tris-Cl, pH 7.4 @4° C.). After centrifuging at 20K×9 for 15 minutes, the pellets are resuspended in 30 volumes of buffer. Homogenate ([…]) is added to triplicate tubes containing concentrations of test compound and [^3 H]-MCC (3 nM) in a final volume of […]. Samples are incubated for 60 minutes at 4° C., then rapidly filtered through Whatman GF/B filters presoaked in 0.5% polyethylimine using 3×4 ml of ice-cold buffer. The filters are counted in 4 mL of Ecolume (ICN). Nonspecific binding is determined in the presence of 10 […] and values were expressed as a percentage of total binding. IC50 values are determined with the ALLFIT curve-fitting program and IC50 values are converted to Ki values using the Cheng and Prusoff correction, (Ki=IC50 /(1+[ligand]/Kd ligand). Alternatively, data are expressed as a percentage of the total specific binding.

M1 muscarinic receptor = target: T1, M1 muscarinic receptor (Rattus norvegicus, UniProt P08482); experiment: Competition with [3H]pirenzepine at cortical M1 muscarinic receptors; format: binding; conditions: Table 3; read-out: M1 Ki
T1 construct: from tissue; host or cells: adult rat fronto-parietal cortex membranes (homogenate)
T1 sequence (P08482 1-460): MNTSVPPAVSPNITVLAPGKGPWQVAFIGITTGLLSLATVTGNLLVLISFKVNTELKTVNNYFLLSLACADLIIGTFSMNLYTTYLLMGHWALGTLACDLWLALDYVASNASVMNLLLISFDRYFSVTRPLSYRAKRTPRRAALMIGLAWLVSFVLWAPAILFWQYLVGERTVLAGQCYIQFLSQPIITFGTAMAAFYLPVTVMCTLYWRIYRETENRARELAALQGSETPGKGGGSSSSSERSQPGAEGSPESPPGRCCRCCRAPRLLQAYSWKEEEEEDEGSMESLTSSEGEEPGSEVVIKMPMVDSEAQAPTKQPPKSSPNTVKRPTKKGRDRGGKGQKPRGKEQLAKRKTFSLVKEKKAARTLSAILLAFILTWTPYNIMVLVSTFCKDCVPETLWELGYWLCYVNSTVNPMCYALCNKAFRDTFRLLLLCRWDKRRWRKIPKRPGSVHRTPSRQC

[3] = tested on: Rat striatal muscarinic receptors; experiment: Agonist intrinsic activity: inhibition of forskolin-activated [3H]cAMP in dissociated rat striatum; format: cell-based; conditions: selective muscarinic antagonist
Source text: Rat striatal muscarinic receptors are coupled to the inhibition of the conversion of adenosine triphosphate (ATP) to cyclic adenosine monophosphate (cAMP). […] The ATP stores in dissociated rat striatum were labeled with [^3 H]adenine and [^3 H]-cAMP levels were elevated with 10 um forskolin.

[4] = 0.01 mg/kg, iv, mean of three experiments

| SMILES | Ki (M2 muscarinic receptor) | Ki [2] | Nic % Enhancement @ Max. Effect [2] | Nic Conc. @ Max. Effect [2] | Affinity for M1/M2 muscarinic and nicotinic neuronal binding sites [2] | Binding of other nicotinic ligands to the neuronal nicotinic receptor [2] | Ki (M1 muscarinic receptor) | further results |
| --- | --- | --- | --- | --- | --- | --- | --- | --- |
| C[N+](C)(C)CCOC(N)=O [carbachol] | – | – | – | – | – | – | – | CNS penetration [1]: poor CNS penetration |
| CN1C(=O)N(c2ccccc2)C2(CCNCC2)C1=O.Cl [Example 3, 3-Methyl-1-phenyl-1,3,8-triazaspiro[4,5]decane-2,4-dione hydrochloride] | > 100 µM | > 100 µM | +42% | 0.0001 mM | little affinity | potently enhance the binding of other nicotinic ligands | > 100 µM | BF-Elicited CBF Response, % Change from Pre-Drug CONTROL (male Sprague-Dawley rats; [4]): +39%; MAP, % Change from Pre-Drug CONTROL (male Sprague-Dawley rats; [4]): +5%; Resting CBF, % Change from Pre-Drug CONTROL (male Sprague-Dawley rats; [4]): +23%; Effects on MAP (male Sprague-Dawley rats; 0.01-10.0 mg/kg iv): No remarkable effects on MAP; Effects on blood pressure (male Sprague-Dawley rats; iv): no overt effects on blood pressure; Resting CBF and BF-elicited CBF response (male Sprague-Dawley rats; low concentrations, iv, words): effective in enhancing resting CBF and the BF-elicited CBF response |
| COC(=O)C1=CCCN(C)C1 [arecoline] | – | – | – | – | – | – | – | Pharmacokinetics [1]: unfavorable pharmacokinetics |
| CN1[C@@H]2CC[C@H]1C[C@@H](OC(=O)C(CO)c1ccccc1)C2 (some centres unmarked) [atropine, reference compound] | – | – | – | – | – | – | – | Blockade of all agonist responses [3]: fully blocked |
| CN1CCC2(CC1)C(=O)N(C)C(=O)N2c1ccccc1 [Example 4, 3,8-Dimethyl-1-phenyl-1,3,8-triazaspiro[4,5]decane-2,4-dione] | > 100 µM | > 100 µM | +33% | 0.0001 mM | little affinity | potently enhance the binding of other nicotinic ligands | 28 µM | – |

From US5221675A, “Aza-spirocyclic compounds that enhance cholinergic neurotransmission” (Abbott Laboratories, priority 1991, dated 1993)
